Measured values taken from US10426718B2, “Compositions and methods for treating hair loss and delaying aging of skin” (Phyto Tech Corp., priority 2012, dated 2019).

What was measured:
Format in all cases: in vivo, mouse
C57BL/6J male mice [1] = assay: induction of anagen on depilated dorsal skin; conditions: DHM 10% (w/w-%), 1 ml topical daily, day 8; vs vehicle control; similar to minoxidil 2%; P<0.05, N=10
Text: (§1) A total of 40 seven-week-old, wild type C57BL/6J male mice were used for the study. The mice were housed individually (one mouse/cage). The mice were randomly assigned to one of four treatment groups that contained 10 mice per group. The treatment groups included a vehicle control, a positive control (minoxidil 2%), DHM 5% (w/w-%), and DHM 10% (w/w-%).
(§2) The vehicle used for all treatment groups was a mixture of alcohol denat., propanediol, water, ethylhexylglycerin, and phenoxyethanol. The DHM used in the DHM treatment groups has a purity of 98%.
(§3) The DHM 10% treatment contained the following percentage concentrations (w/w-%): 20% alcohol denat., 10% DHM, 50% propanediol, 19.5% water, and 0.5% ethylhexylglycerin and phenoxyethanol.
(§4) The hair of the dorsal skin (2×5 cm) from every mouse was removed by clipping and topical application of calcium thioglycolate to depilate the clipped area. The next day, mice without visible wounds were used for the study. The mice received a daily topical application of 1 ml of their respective treatment per day. Hair regrowth was quantified by analyzing photographs that were taken of each mouse every 4 days after topical treatment for a total of 21 days (day 0, 4, 8, 12, 16, and 21). For each mouse, an area of 3 cm^2 of the back was analyzed. All experiments were continued for 21 days. […]

[2] = test system: chronically stressed C57BL/6J mice; assay: open field test (OFT) behavioral anxiety test in chronically stressed mice; conditions: 1 μM DHM in Vaseline, topical once per day for six weeks
Description: (§5) The effectiveness of DHM in the treatment of stress-induced hair loss was tested using two groups of eight week old C57BL/6J mice. Chronic stress was induced in the first group (n=20) by restraining each mouse in the test group for 3 hours per day for 21 consecutive days in a modified 50 ml clear polystyrene conical centrifuge tube with multiple air holes for ventilation. The second group of mice (n=10) remained undisturbed in their home cages (Fernandex-Vozmediano et al. (1994) “Contact dermatitis due to topical spironolactone.” Contact Dermatitis 30: 118-9; Tresch, et al. (2011) “T cell-mediated acute localized exanthematous pustulosis caused by finasteride.” J Allergy Clin Immunol 129: 589-94). The completion of the 21 day stress-induction cycle was followed by a two day withdrawal. […] The rodents' stress levels were also assessed via elevated plus maze (EPM) and open field test (OFT). […] Within the context of EPM, anxiety-related behavior was measured by the degree to which a mouse avoided the unenclosed arms of the maze. […] In OFT, each mouse was placed on an empty table surrounded by walls, and the mouse's movements and the time it spent moving were monitored. Within the context of OFT, anxiety-related behavior was measured by the degree to which a mouse avoided the open center and stayed close to the walls. […]

C57BL/6J male mice [3] = assay: hair regrowth on depilated dorsal skin; conditions: DHM 10% (w/w-%), 1 ml topical daily, day 12; vs vehicle control; similar to minoxidil 2%; P<0.05, N=10
Text: as §1, §2, §3, §4

c57BL/6J mice = assay: topical toxicity / allergic reaction test, Vaseline mixed with DHM on shaved skin; conditions: Vaseline mixed with 1 g DHM, six weeks
Text: To determine whether topical application of DHM is toxic or causes allergic reaction, Vaseline mixed with 1 g DHM was applied to the shaved skin of c57BL/6J mice for six weeks.

[4] = test system: chronically stressed C57BL/6J mice; assay: elevated plus maze (EPM) behavioral anxiety test in chronically stressed mice; conditions: for behavioral anxiety (EPM and OFT together): 1 μM DHM, daily topical treatment for 6 weeks, chronically stressed mice
Description: The effectiveness of DHM in the treatment of stress-induced hair loss was tested using two groups of eight week old C57BL/6J mice. Chronic stress was induced in the first group (n=20) by restraining each mouse in the test group for 3 hours per day for 21 consecutive days in a modified 50 ml clear polystyrene conical centrifuge tube with multiple air holes for ventilation. The second group of mice (n=10) remained undisturbed in their home cages (Fernandex-Vozmediano et al. (1994) “Contact dermatitis due to topical spironolactone.” Contact Dermatitis 30: 118-9; Tresch, et al. (2011) “T cell-mediated acute localized exanthematous pustulosis caused by finasteride.” J Allergy Clin Immunol 129: 589-94). The completion of the 21 day stress-induction cycle was followed by a two day withdrawal. […] The rodents' stress levels were also assessed via elevated plus maze (EPM) and open field test (OFT). EPM and OFT are behavioral tests that are commonly used to assess anxiety by measuring a mouse's locomotor activity and willingness to explore. When anxious, rodents naturally prefer enclosed dark spaces to opened brightly lit spaces. In the EPM test, individual mice from each group were placed on a plus-shaped apparatus that was raised from the floor and had two open and two enclosed arms. Within the context of EPM, anxiety-related behavior was measured by the degree to which a mouse avoided the unenclosed arms of the maze. As shown in FIG. 2A and FIG. 2B, the unstressed mice explored the open arms, whereas the chronically stressed mice avoided the open arms and restricted their movements to the closed arms. In OFT, each mouse was placed on an empty table surrounded by walls, and the mouse's movements and the time it spent moving were monitored. Within the context of OFT, anxiety-related behavior was measured by the degree to which a mouse avoided the open center and stayed close to the walls. As shown in FIG. 2C and FIG. 2D, the unstressed mice explored center of the table, whereas the chronically stressed mice avoided the center and remained in the corners. […]

[5] = test system: chronically stressed C57BL/6J mice; assay: treatment of stress-induced hair loss (restraint-stressed mice), hair regrowth; conditions: 1 μM DHM in 1 oz. Vaseline, topical once per day for six weeks, vs Vaseline alone
Description: as §5

Compound: O=C1c2c(O)cc(O)cc2O[C@H](c2cc(O)c(O)c(O)c2)[C@H]1O [DHM, (2R,3R)-3,5,7-trihydroxy-2-(3,4,5-trihydroxyphenyl)-2,3-dihydrochromen-4-one]
- induction of anagen (grading 0-3) (C57BL/6J male mice [1]): significantly different to treatment with the vehicle control
- locomotor activity in OFT [2]: significantly increased locomotor activity
- running distance in OFT [2]: longer running distance comparable to those of unstressed mice
- hair regrowth (grading 0-3) (C57BL/6J male mice [3]): statistically significant increase in hair regrowth
- changes in body weight (c57BL/6J mice): did not exhibit any changes
- changes in metabolic rate (c57BL/6J mice): did not exhibit any changes
- rash, redness, or other responses associated with an allergic reaction (c57BL/6J mice): did not exhibit rash, redness, or other responses associated with an allergic reaction
- willingness to explore the open arms of the EPM apparatus ([4]; 1 μM DHM in Vaseline, topical once per day for six weeks, compared with unstressed control mice): as willing to explore the open arms of the EPM apparatus as the unstressed control mice
- behavioral anxiety (EPM and OFT together) [4]: reversed
- behavioral anxiety (EPM and OFT together) ([4]; listed as dihydromyricetin): behavioral anxiety was reduced
- hair regrowth on bald spots [5]: hair regrowth was observed
- hair regrowth on bald spots ([5]; listed as dihydromyricetin): regrowth of hair
